According to PubChem BioAssay AID720512 (Broad Institute, 2013):
Active and inactive are the calls of the source. How the calls were made is not given here.

These molecules were tested against Toxin B (TcdB) glycohydrolase, Clostridioides difficile 630 (assay: TcdB glycohydrolase inhibitors, dose response, biochemical, cherry-pick, plate reader (AID 720512)). Details: recombinant TcdB glycohydrolase activity.

Structure (SMILES) | AC50
Cc1cc(N/N=C/c2ccc(O)cc2)c2cccc(C)c2n1 | > 39 µM (inactive)
FC(F)(F)c1cc(CCN2CCNC[C@H]2Cc2cccc3ccccc23)cc(C(F)(F)F)c1 | > 39 µM (inactive)
CC(=O)Nc1cccc2cc(O)ccc12 | > 39 µM (inactive)
Cc1cc(C)c2nc(C)cc(N/N=C/c3ccc(O)cc3)c2c1 | > 39 µM (inactive)

Same assay, conditions: recombinant TcdB glycohydrolase activity, at 3.5 µM (top of the series)

Structure (SMILES) | activity change, negative = inhibition
CO[C@@H]1CN(C)C(=O)c2cc(NC(=O)NC(C)C)ccc2OC[C@@H](C)N(S(C)(=O)=O)C[C@H]1C | inactive

Same assay, conditions: recombinant TcdB glycohydrolase activity, at 10 µM (top of the series)

Structure (SMILES) | activity change, negative = inhibition
O=C1c2c(O)ccc(O)c2C(=O)c2c(NCCNCCO)ccc(NCCNCCO)c21 | inactive

Same assay, conditions: recombinant TcdB glycohydrolase activity, at 19.5 µM (top of the series)

Structure (SMILES) | activity change, negative = inhibition
CCOC(=O)c1c(C)[nH]c(C)c1C(=O)COC(=O)/C=C/c1ccco1 | inactive
O=[N+]([O-])c1cc(Br)ccc1NS(=O)(=O)c1ccccc1 | inactive
CC(=O)c1cccc(-c2ccnc3c2CC(C(=O)NCc2ccccc2)O3)c1 (centres undefined) | inactive
Cn1cnnc1SCC(=O)NC1CCCCC1 | inactive
CCCC(=O)Nc1ccc2c(c1)OC[C@H](C)N(CC1CCCC1)C[C@H](C)[C@@H](OC)CN(C)C2=O | inactive
CC(Sc1nc2ccccc2n1C)C(=O)Nc1ccc(N2CCOCC2)cc1 (centres undefined) | inactive
CCC(=Nc1ccccc1)C1=C(O)CCCC1=O | inactive
CN(C)/C=C(\C#N)C(=O)Nc1ccc(O)cc1F | inactive
O=C(NC(=S)NNC(=O)c1ccccc1F)c1cccnc1 | inactive
COc1ccccc1Nc1nnc(SCc2cc(=O)n3ccsc3n2)s1 | inactive
O=C(c1ccc2c(c1)N(Cc1ccccc1)C(=O)c1ccccc1S2)N1CCCC1 | inactive
COc1ccc(CNC(=O)Cc2cn(C)c3ccccc23)c(OC)c1 | inactive
Cc1ccc2ccc[n+](Cc3ccccc3)c2c1 | inactive
CNC(=O)C1CCN(S(=O)(=O)c2c(C)noc2/C=C/c2ccccc2F)CC1 | inactive
CC(Oc1ccc(Cl)cc1Cl)C(=O)Nc1ccc(O)cc1 (centres undefined) | inactive
O=C(c1ccc2c(c1)N(Cc1ccccc1F)C(=O)c1ccccc1S2)N1CCOCC1 | inactive
Cn1c(=O)[nH]c(=O)c2c1[nH]c(=S)n2Cc1ccccc1 | inactive
CCOc1ccccc1/C=C/c1onc(C)c1S(=O)(=O)N1CCC(C(=O)NC(C)(C)C)CC1 | inactive
Cc1cc(O)ccc1N=Cc1c(C(F)(F)F)[nH][nH]c1=O | inactive
C=CCOc1cccc(CNc2ccc3[nH]c(=O)[nH]c3c2)c1 | inactive
COc1ccc(Cl)cc1NC(=O)CN(C)C(=O)c1cc2c(s1)CCCC2 | inactive
O=S(=O)(NC1CCCCCCC1)c1ccc(F)cc1 | inactive

Structure (SMILES) | activity change, negative = inhibition
O=C(O)c1ccccc1C(=O)c1ccc2c(c1)N(Cc1cccc(F)c1)C(=O)CO2 | inactive
COc1cc(Cc2ccc(N)c(OC)c2)ccc1N | inactive
CCc1ccccc1NC(=S)N(Cc1ccc(C(=O)O)cc1)Cc1ccc(OC)c(OC)c1 | inactive
Cc1ccc(C(=O)NC(=S)NNC(=O)CC#N)cc1 | inactive
Cc1ccc(SCCC(=O)N/N=C/c2cccnc2)cc1 | inactive
O=C(OCn1nnc2ccccc2c1=O)c1cc2ccccc2o1 | inactive
Cc1ccc(C2=NS(=O)(=O)N(C)C(C(=O)NCc3cccs3)=C2)cc1 | inactive
O=C(C[C@H]1C[C@@H]2c3cc(NC(=O)c4ccc5c(c4)OCO5)ccc3O[C@@H]2[C@@H](CO)O1)NCc1cccc(F)c1 | inactive
COc1ccc(NC(=O)c2cc(S(=O)(=O)N3CCc4ccccc43)cn2C)cc1OC | inactive
CC1C(=O)NN=C1c1ccc([N+](=O)[O-])cc1 (centres undefined) | inactive
CC(C)c1cc(CN2CCN(Cc3ccc(F)c(F)c3)C(CCO)C2)[nH]n1 (centres undefined) | inactive
COC(=O)C1=C(c2ccc(F)cc2OCc2ccccc2)C[C@@H]2CC[C@H]1N2C(=O)NCCOc1ccccc1 | inactive
COCC#Cc1ccc2c(c1)O[C@H](CN(C)C(=O)CC1CC1)[C@@H](C)CN([C@H](C)CO)S2(=O)=O | inactive
COc1ccc(C2=NS(=O)(=O)N(C)C(C(=O)NC(C)c3ccccc3)=C2)cc1 (centres undefined) | inactive
CC(=O)Nc1ccc(OC(=O)Oc2ccc(NC(C)=O)cc2)cc1 | inactive
CN1C(=O)c2cc(NC(=O)c3cccc(F)c3)ccc2OC[C@@H]2O[C@@H](CC(=O)NCC3CCCCC3)CC[C@@H]21 | inactive
COc1ccc(C(=O)NC(CC(=O)O)c2cc([N+](=O)[O-])ccc2Cl)c(SC)c1 (centres undefined) | inactive
CCn1c(SCC(=O)OC)nnc1-c1ccccc1 | inactive
COc1ccccc1-n1c(CCC(=O)O)ccc1-c1ccccc1 | inactive
COc1ccc(C2=NS(=O)(=O)N(C)C(C(=O)NCc3ccc4c(c3)OCO4)=C2)cc1OC | inactive
CCOC(=O)c1cccc(NC(=O)CCNS(=O)(=O)c2cccc3nonc23)c1 | inactive
